{"source": "paper PMC7265341", "about": "“Quantifying CDK inhibitor selectivity in live cells” (Nature Communications, 2020)", "key": {"CDK1/Cyclin E1": {"target": "CDK1/Cyclin E1 (Homo sapiens, UniProt P06493)", "experiment": "NanoBRET live-cell target engagement, CDK1-NanoLuc/Cyclin E1 in HEK-293", "type": "binding", "conditions": "CDK1/E1, read-out: Inhibition at 10µM (%)"}, "CDK2/Cyclin E1": {"target": "CDK2/Cyclin E1 (Homo sapiens, UniProt P24941)", "experiment": "NanoBRET live-cell target engagement, CDK2-NanoLuc/Cyclin E1 in HEK-293", "type": "binding", "conditions": "CDK2/E1, read-out: Inhibition at 10µM (%)"}, "CDK3/Cyclin E1": {"target": "CDK3/Cyclin E1 (Homo sapiens, UniProt Q00526)", "sequence (Q00526 whole entry)": "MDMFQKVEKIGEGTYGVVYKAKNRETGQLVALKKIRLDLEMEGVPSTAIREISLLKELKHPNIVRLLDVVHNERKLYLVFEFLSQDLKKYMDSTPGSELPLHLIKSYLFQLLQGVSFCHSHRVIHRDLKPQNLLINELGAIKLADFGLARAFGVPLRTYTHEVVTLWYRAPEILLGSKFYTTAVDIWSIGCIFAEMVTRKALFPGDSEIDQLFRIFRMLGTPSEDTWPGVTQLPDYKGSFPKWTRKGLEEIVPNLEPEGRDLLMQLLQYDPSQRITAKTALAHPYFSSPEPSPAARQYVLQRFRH", "sequence (P24864 whole entry partner)": "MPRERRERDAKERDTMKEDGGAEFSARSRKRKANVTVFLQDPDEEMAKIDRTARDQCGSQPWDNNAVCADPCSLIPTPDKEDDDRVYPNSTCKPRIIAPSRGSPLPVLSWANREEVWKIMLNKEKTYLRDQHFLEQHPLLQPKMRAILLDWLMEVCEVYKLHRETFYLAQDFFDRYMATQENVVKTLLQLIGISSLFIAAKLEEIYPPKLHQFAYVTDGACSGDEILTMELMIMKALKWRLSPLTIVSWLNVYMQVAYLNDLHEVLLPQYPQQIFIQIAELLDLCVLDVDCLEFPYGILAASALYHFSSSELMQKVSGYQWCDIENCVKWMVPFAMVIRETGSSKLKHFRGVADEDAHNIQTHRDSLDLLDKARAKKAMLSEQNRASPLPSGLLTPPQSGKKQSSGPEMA", "experiment": "NanoBRET live-cell target engagement, CDK3-NanoLuc/Cyclin E1 in HEK-293", "type": "binding", "conditions": "CDK3/E1, read-out: Inhibition at 10µM (%)"}, "CDK4/Cyclin D1": {"target": "CDK4/Cyclin D1 (Homo sapiens, UniProt P11802)", "sequence (P11802 whole entry)": "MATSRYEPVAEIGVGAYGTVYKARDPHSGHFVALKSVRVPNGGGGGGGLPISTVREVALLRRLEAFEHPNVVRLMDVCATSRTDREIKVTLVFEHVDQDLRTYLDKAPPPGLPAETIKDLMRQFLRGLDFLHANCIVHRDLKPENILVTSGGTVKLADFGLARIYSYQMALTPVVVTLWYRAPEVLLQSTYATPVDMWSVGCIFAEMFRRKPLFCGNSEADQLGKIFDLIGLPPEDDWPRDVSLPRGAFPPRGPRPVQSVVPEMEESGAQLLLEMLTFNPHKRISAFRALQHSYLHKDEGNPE", "sequence (P24385 whole entry partner)": "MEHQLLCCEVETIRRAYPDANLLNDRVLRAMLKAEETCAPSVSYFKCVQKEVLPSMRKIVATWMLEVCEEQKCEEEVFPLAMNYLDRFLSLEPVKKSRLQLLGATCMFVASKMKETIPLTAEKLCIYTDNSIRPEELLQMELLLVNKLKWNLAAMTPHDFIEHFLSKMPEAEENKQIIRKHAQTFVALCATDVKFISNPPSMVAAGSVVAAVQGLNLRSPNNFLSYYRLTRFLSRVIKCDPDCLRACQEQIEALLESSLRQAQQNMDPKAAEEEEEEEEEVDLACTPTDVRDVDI", "experiment": "NanoBRET live-cell target engagement, NanoLuc-CDK4/Cyclin D1 in HEK-293", "type": "binding", "conditions": "CDK4/D1, read-out: Inhibition at 10µM (%)"}, "CDK5/CDK5R1": {"target": "CDK5/CDK5R1 (Homo sapiens, UniProt Q00535)", "sequence (Q00535 whole entry)": "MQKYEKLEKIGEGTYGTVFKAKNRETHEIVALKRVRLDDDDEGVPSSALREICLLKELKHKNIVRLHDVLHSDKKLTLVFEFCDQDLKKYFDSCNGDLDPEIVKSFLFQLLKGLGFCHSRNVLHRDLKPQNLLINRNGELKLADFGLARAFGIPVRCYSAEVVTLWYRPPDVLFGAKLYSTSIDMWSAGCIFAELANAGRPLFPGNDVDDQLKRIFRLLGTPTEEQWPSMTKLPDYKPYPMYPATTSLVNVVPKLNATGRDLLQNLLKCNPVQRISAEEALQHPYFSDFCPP", "sequence (Q15078 whole entry partner)": "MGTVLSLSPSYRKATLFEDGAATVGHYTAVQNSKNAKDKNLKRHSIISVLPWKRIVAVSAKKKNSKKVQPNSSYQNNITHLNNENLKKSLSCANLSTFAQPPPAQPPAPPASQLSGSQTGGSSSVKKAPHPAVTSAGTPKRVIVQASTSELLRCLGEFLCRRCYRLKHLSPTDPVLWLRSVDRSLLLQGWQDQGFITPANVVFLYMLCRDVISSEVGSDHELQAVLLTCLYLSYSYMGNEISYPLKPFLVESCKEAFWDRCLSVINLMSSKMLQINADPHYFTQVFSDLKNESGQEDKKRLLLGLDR", "experiment": "NanoBRET live-cell target engagement, CDK5-NanoLuc/CDK5R1 in HEK-293", "type": "binding", "conditions": "CDK5/CDK5R1, read-out: Inhibition at 10µM (%)"}, "CDK6/Cyclin D1": {"target": "CDK6/Cyclin D1 (Homo sapiens, UniProt Q00534)", "sequence (Q00534 whole entry)": "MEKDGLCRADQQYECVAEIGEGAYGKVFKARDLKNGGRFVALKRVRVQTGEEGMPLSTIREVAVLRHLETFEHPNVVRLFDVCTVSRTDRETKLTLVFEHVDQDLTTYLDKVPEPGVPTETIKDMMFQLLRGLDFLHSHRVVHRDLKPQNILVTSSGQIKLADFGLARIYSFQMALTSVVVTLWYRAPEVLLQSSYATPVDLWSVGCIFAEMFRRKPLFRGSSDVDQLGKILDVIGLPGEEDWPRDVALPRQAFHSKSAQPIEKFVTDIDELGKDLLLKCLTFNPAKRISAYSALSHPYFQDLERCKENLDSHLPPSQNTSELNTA", "sequence (P24385 whole entry partner)": "as the sequence (P24385 whole entry partner) above", "experiment": "NanoBRET live-cell target engagement, NanoLuc-CDK6/Cyclin D1 in HEK-293", "type": "binding", "conditions": "CDK6/D1, read-out: Inhibition at 10µM (%)"}, "CDK7": {"target": "CDK7 (Homo sapiens, UniProt P50613)", "sequence (P50613 whole entry)": "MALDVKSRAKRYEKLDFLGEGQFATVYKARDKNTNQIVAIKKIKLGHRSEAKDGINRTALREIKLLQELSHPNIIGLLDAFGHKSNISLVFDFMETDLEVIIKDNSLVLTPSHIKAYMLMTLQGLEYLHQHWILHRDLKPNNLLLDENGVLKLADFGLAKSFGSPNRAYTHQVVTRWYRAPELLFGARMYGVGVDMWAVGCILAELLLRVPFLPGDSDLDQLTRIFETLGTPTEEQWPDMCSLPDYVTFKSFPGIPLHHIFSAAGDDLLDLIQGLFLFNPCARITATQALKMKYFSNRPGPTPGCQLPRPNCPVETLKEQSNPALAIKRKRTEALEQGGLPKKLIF", "experiment": "NanoBRET live-cell target engagement, NanoLuc-CDK7 in HEK-293", "type": "binding", "conditions": "CDK7, read-out: Inhibition at 10µM (%)"}, "CDK8/Cyclin C": {"target": "CDK8/Cyclin C (Homo sapiens, UniProt P49336)", "experiment": "NanoBRET live-cell target engagement, NanoLuc-CDK8/Cyclin C in HEK-293", "type": "binding", "conditions": "CDK8/C, read-out: Inhibition at 10µM (%)"}, "CDK9/Cyclin K": {"target": "CDK9/Cyclin K (Homo sapiens, UniProt P50750)", "experiment": "NanoBRET live-cell target engagement, NanoLuc-CDK9/Cyclin K in HEK-293", "type": "binding", "conditions": "CDK9/K, read-out: Inhibition at 10µM (%)"}, "CDK11B/Cyclin L2": {"target": "CDK11B/Cyclin L2 (Homo sapiens, UniProt P21127)", "experiment": "NanoBRET live-cell target engagement, CDK11B-NanoLuc/Cyclin L2 in HEK-293", "type": "binding", "conditions": "CDK11b/L2, read-out: Inhibition at 10µM (%)"}, "CDK12/Cyclin K": {"target": "CDK12/Cyclin K (Homo sapiens, UniProt Q9NYV4)", "experiment": "NanoBRET live-cell target engagement, CDK12-NanoLuc/Cyclin K in HEK-293", "type": "binding", "conditions": "CDK12/K, read-out: Inhibition at 10µM (%)"}, "CDK13/Cyclin K": {"target": "CDK13/Cyclin K (Homo sapiens, UniProt Q14004)", "experiment": "NanoBRET live-cell target engagement, CDK13-NanoLuc/Cyclin K in HEK-293", "type": "binding", "conditions": "CDK13/K, read-out: Inhibition at 10µM (%)"}, "CDK14/Cyclin Y": {"target": "CDK14/Cyclin Y (Homo sapiens, UniProt O94921)", "sequence (O94921 whole entry)": "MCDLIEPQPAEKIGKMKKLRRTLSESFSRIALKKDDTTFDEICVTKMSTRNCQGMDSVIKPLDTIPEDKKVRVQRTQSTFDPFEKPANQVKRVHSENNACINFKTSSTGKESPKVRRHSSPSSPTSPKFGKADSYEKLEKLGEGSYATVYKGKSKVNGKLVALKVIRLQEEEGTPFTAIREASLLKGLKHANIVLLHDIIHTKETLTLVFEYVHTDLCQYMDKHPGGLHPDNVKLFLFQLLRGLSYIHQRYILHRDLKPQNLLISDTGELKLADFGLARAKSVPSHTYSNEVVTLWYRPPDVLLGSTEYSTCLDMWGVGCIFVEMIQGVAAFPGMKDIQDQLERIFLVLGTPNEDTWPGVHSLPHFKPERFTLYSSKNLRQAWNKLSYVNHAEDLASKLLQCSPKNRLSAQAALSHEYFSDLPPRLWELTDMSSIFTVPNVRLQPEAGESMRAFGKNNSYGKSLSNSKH", "sequence (Q8ND76 whole entry partner)": "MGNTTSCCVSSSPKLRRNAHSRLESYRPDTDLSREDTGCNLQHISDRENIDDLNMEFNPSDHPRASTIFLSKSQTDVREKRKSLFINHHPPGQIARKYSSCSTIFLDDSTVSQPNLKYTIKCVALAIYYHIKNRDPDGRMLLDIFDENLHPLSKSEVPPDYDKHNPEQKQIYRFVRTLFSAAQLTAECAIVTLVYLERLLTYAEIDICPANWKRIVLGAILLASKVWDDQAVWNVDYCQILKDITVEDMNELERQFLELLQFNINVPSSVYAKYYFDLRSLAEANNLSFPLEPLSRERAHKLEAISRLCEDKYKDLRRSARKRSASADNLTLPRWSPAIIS", "experiment": "NanoBRET live-cell target engagement, CDK14-NanoLuc/Cyclin Y in HEK-293", "type": "binding", "conditions": "CDK14/Y, read-out: Inhibition at 10µM (%)"}, "CDK15/Cyclin Y": {"target": "CDK15/Cyclin Y (Homo sapiens, UniProt Q96Q40)", "experiment": "NanoBRET live-cell target engagement, NanoLuc-CDK15/Cyclin Y in HEK-293", "type": "binding", "conditions": "CDK15/Y, read-out: Inhibition at 10µM (%)"}, "CDK16/Cyclin Y": {"target": "CDK16/Cyclin Y (Homo sapiens, UniProt Q00536)", "experiment": "NanoBRET live-cell target engagement, CDK16-NanoLuc/Cyclin Y in HEK-293", "type": "binding", "conditions": "CDK16/Y, read-out: Inhibition at 10µM (%)"}, "CDK17/Cyclin Y": {"target": "CDK17/Cyclin Y (Homo sapiens, UniProt Q00537)", "sequence (Q00537 whole entry)": "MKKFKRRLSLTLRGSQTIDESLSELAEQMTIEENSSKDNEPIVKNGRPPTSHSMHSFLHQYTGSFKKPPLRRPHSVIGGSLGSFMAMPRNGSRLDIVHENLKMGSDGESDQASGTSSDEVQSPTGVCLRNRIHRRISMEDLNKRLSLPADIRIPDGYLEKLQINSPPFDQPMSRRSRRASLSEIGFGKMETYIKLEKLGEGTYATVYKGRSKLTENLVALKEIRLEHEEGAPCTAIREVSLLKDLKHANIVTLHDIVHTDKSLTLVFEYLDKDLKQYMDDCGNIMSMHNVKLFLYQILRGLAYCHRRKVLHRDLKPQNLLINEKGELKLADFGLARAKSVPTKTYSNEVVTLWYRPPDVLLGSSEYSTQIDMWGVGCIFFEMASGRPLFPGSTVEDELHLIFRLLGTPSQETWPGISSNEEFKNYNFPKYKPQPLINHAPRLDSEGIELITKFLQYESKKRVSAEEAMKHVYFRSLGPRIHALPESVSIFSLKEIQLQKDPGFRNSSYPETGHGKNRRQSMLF", "sequence (Q8ND76 whole entry partner)": "as the sequence (Q8ND76 whole entry partner) above", "experiment": "NanoBRET live-cell target engagement, CDK17-NanoLuc/Cyclin Y in HEK-293", "type": "binding", "conditions": "CDK17/Y, read-out: Inhibition at 10µM (%)"}, "CDK18/Cyclin Y": {"target": "CDK18/Cyclin Y (Homo sapiens, UniProt Q07002)", "sequence (Q07002 whole entry)": "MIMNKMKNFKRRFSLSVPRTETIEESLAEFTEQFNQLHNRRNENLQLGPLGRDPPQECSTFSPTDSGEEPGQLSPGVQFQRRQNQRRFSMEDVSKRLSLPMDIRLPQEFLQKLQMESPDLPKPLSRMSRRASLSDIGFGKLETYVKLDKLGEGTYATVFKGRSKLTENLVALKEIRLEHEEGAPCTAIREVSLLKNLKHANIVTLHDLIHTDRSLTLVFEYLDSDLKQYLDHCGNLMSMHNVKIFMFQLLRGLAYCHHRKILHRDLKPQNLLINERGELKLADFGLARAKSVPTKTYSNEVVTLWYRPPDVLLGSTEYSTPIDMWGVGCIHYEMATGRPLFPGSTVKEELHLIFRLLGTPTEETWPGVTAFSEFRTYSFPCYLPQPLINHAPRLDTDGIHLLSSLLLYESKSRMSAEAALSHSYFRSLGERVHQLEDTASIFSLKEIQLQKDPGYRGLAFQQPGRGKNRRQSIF", "sequence (Q8ND76 whole entry partner)": "as the sequence (Q8ND76 whole entry partner) above", "experiment": "NanoBRET live-cell target engagement, CDK18-NanoLuc/Cyclin Y in HEK-293", "type": "binding", "conditions": "CDK18/Y, read-out: Inhibition at 10µM (%)"}, "CDK20/Cyclin H": {"target": "CDK20/Cyclin H (Homo sapiens, UniProt Q8IZL9)", "experiment": "NanoBRET live-cell target engagement, NanoLuc-CDK20/Cyclin H in HEK-293", "type": "binding", "conditions": "CDK20/H, read-out: Inhibition at 10µM (%)"}, "CDK19/Cyclin C": {"target": "CDK19/Cyclin C (Homo sapiens, UniProt Q9BWU1)", "experiment": "NanoBRET live-cell target engagement, NanoLuc-CDK19/Cyclin C in HEK-293", "conditions": "read-out: Inhibition at 10µM (%), CDK19/C"}, "CDK10/Cyclin L2": {"target": "CDK10/Cyclin L2 (Homo sapiens, UniProt Q15131)", "sequence (Q15131 whole entry)": "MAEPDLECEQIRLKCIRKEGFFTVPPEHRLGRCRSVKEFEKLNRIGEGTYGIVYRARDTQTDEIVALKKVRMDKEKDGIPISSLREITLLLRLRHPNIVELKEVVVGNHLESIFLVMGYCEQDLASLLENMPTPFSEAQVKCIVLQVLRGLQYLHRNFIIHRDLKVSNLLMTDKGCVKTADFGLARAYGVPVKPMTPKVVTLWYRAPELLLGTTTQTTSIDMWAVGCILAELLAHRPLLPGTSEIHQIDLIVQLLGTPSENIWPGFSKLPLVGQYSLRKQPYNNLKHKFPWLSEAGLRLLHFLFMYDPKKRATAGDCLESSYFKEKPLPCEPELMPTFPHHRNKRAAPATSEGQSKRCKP", "experiment": "NanoBRET live-cell target engagement, CDK10-NanoLuc/Cyclin L2 in HEK-293", "conditions": "read-out: Inhibition at 10µM (%), CDK10/L2"}}, "note": "Like-named read-outs stand apart in the source and are kept apart here.", "data": [{"smiles": "CC(C)N1CCN(c2ccc(Nc3ncc4cc5n(c4n3)C3(CCCCC3)CNC5=O)nc2)CC1", "note": "[Lerociclib]", "values": [{"measurement": "inhibition at 10 µM", "setting": "CDK1/Cyclin E1; average", "result": 7.7, "unit": "%"}, {"measurement": "inhibition at 10 µM", "setting": "CDK1/Cyclin E1; experiment 1", "result": 12.1, "unit": "%"}, {"measurement": "inhibition at 10 µM", "setting": "CDK1/Cyclin E1; experiment 2", "result": 3.2, "unit": "%"}, {"measurement": "inhibition at 10 µM", "setting": "CDK2/Cyclin E1; average", "result": -5.8, "unit": "%"}, {"measurement": "inhibition at 10 µM", "setting": "CDK2/Cyclin E1; experiment 1", "result": -11, "unit": "%"}, {"measurement": "inhibition at 10 µM", "setting": "CDK2/Cyclin E1; experiment 2", "result": -0.6, "unit": "%"}, {"measurement": "inhibition at 10 µM", "setting": "CDK3/Cyclin E1; average", "result": 3.3, "unit": "%"}, {"measurement": "inhibition at 10 µM", "setting": "CDK3/Cyclin E1; experiment 1", "result": 5, "unit": "%"}, {"measurement": "inhibition at 10 µM", "setting": "CDK3/Cyclin E1; experiment 2", "result": 1.6, "unit": "%"}, {"measurement": "inhibition at 10 µM", "setting": "CDK4/Cyclin D1; average", "result": 93.4, "unit": "%"}, {"measurement": "inhibition at 10 µM", "setting": "CDK4/Cyclin D1; experiment 1", "result": 96.8, "unit": "%"}, {"measurement": "inhibition at 10 µM", "setting": "CDK4/Cyclin D1; experiment 2", "result": 90.1, "unit": "%"}, {"measurement": "inhibition at 10 µM", "setting": "CDK5/CDK5R1; average", "result": 12.2, "unit": "%"}, {"measurement": "inhibition at 10 µM", "setting": "CDK5/CDK5R1; experiment 1", "result": 5.5, "unit": "%"}, {"measurement": "inhibition at 10 µM", "setting": "CDK5/CDK5R1; experiment 2", "result": 18.9, "unit": "%"}, {"measurement": "inhibition at 10 µM", "setting": "CDK6/Cyclin D1; average", "result": 98.9, "unit": "%"}, {"measurement": "inhibition at 10 µM", "setting": "CDK6/Cyclin D1; experiment 1", "result": 97, "unit": "%"}, {"measurement": "inhibition at 10 µM", "setting": "CDK6/Cyclin D1; experiment 2", "result": 101, "unit": "%"}, {"measurement": "inhibition at 10 µM", "setting": "CDK7; average", "result": 35.1, "unit": "%"}, {"measurement": "inhibition at 10 µM", "setting": "CDK7; experiment 1", "result": 12.3, "unit": "%"}, {"measurement": "inhibition at 10 µM", "setting": "CDK7; experiment 2", "result": 58, "unit": "%"}, {"measurement": "inhibition at 10 µM", "setting": "CDK8/Cyclin C; average", "result": 4.9, "unit": "%"}, {"measurement": "inhibition at 10 µM", "setting": "CDK8/Cyclin C; experiment 1", "result": 6.7, "unit": "%"}, {"measurement": "inhibition at 10 µM", "setting": "CDK8/Cyclin C; experiment 2", "result": 3, "unit": "%"}, {"measurement": "inhibition at 10 µM", "setting": "CDK9/Cyclin K; average", "result": 29.3, "unit": "%"}, {"measurement": "inhibition at 10 µM", "setting": "CDK9/Cyclin K; experiment 1", "result": 31, "unit": "%"}, {"measurement": "inhibition at 10 µM", "setting": "CDK9/Cyclin K; experiment 2", "result": 27.6, "unit": "%"}, {"measurement": "inhibition at 10 µM", "setting": "CDK11B/Cyclin L2; average", "result": 16.1, "unit": "%"}, {"measurement": "inhibition at 10 µM", "setting": "CDK11B/Cyclin L2; experiment 1", "result": 0.226, "unit": "%"}, {"measurement": "inhibition at 10 µM", "setting": "CDK11B/Cyclin L2; experiment 2", "result": 32, "unit": "%"}, {"measurement": "inhibition at 10 µM", "setting": "CDK12/Cyclin K; average", "result": 8.7, "unit": "%"}, {"measurement": "inhibition at 10 µM", "setting": "CDK12/Cyclin K; experiment 1", "result": -0.9, "unit": "%"}, {"measurement": "inhibition at 10 µM", "setting": "CDK12/Cyclin K; experiment 2", "result": 18.4, "unit": "%"}, {"measurement": "inhibition at 10 µM", "setting": "CDK13/Cyclin K; average", "result": -0.247, "unit": "%"}, {"measurement": "inhibition at 10 µM", "setting": "CDK13/Cyclin K; experiment 1", "result": 4.2, "unit": "%"}, {"measurement": "inhibition at 10 µM", "setting": "CDK13/Cyclin K; experiment 2", "result": -4.7, "unit": "%"}, {"measurement": "inhibition at 10 µM", "setting": "CDK14/Cyclin Y; average", "result": 29.2, "unit": "%"}, {"measurement": "inhibition at 10 µM", "setting": "CDK14/Cyclin Y; experiment 1", "result": 25.1, "unit": "%"}, {"measurement": "inhibition at 10 µM", "setting": "CDK14/Cyclin Y; experiment 2", "result": 33.2, "unit": "%"}, {"measurement": "inhibition at 10 µM", "setting": "CDK15/Cyclin Y; average", "result": 14.9, "unit": "%"}, {"measurement": "inhibition at 10 µM", "setting": "CDK15/Cyclin Y; experiment 1", "result": 5, "unit": "%"}, {"measurement": "inhibition at 10 µM", "setting": "CDK15/Cyclin Y; experiment 2", "result": 24.7, "unit": "%"}, {"measurement": "inhibition at 10 µM", "setting": "CDK16/Cyclin Y; experiment 1", "result": 77.1, "unit": "%"}, {"measurement": "inhibition at 10 µM", "setting": "CDK16/Cyclin Y; experiment 2", "result": 32, "unit": "%"}, {"measurement": "inhibition at 10 µM", "setting": "CDK17/Cyclin Y; average", "result": 58.5, "unit": "%"}, {"measurement": "inhibition at 10 µM", "setting": "CDK17/Cyclin Y; experiment 1", "result": 75.6, "unit": "%"}, {"measurement": "inhibition at 10 µM", "setting": "CDK17/Cyclin Y; experiment 2", "result": 41.4, "unit": "%"}, {"measurement": "inhibition at 10 µM", "setting": "CDK18/Cyclin Y; average", "result": 19.5, "unit": "%"}, {"measurement": "inhibition at 10 µM", "setting": "CDK18/Cyclin Y; experiment 1", "result": 22.1, "unit": "%"}, {"measurement": "inhibition at 10 µM", "setting": "CDK18/Cyclin Y; experiment 2", "result": 16.8, "unit": "%"}, {"measurement": "inhibition at 10 µM", "setting": "CDK20/Cyclin H; experiment 1", "result": 10.2, "unit": "%"}, {"measurement": "inhibition at 10 µM", "setting": "CDK20/Cyclin H; experiment 2", "result": 7.2, "unit": "%"}, {"measurement": "inhibition at 10 µM", "setting": "CDK19/Cyclin C; average", "result": 13, "unit": "%"}, {"measurement": "inhibition at 10 µM", "setting": "CDK19/Cyclin C; experiment 1", "result": 7.9, "unit": "%"}, {"measurement": "inhibition at 10 µM", "setting": "CDK19/Cyclin C; experiment 2", "result": 18.2, "unit": "%"}, {"measurement": "inhibition at 10 µM", "setting": "CDK10/Cyclin L2; average", "result": 7.8, "unit": "%"}, {"measurement": "inhibition at 10 µM", "setting": "CDK10/Cyclin L2; experiment 1", "result": 9.5, "unit": "%"}, {"measurement": "inhibition at 10 µM", "setting": "CDK10/Cyclin L2; experiment 2", "result": 6.2, "unit": "%"}]}]}
